#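 In this assay, cells in 96-well plates receive the compound at five concentrations for 48 hours. Endpoints are linearly interpolated between the surrounding concentrations. The concentration for full growth arrest is given as TGI.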
# Tests used:
# Assay in all cases: growth of human tumour cells (NCI), 48 h
# [1] = tested on: LOX IMVI melanoma
# [2] = tested on: COLO 205 colon
# [3] = tested on: MCF7 breast
# [4] = tested on: EKVX NSCLC
# [5] = tested on: PC-3 prostate
# [6] = tested on: T-47D breast
# [7] = tested on: CAKI-1 renal
# [8] = tested on: TK-10 renal
# [9] = tested on: SF-268 CNS
# [10] = tested on: MOLT-4 leukemia
# [11] = tested on: ACHN renal
# [12] = tested on: A549 NSCLC
# [13] = tested on: UO-31 renal
# [14] = tested on: SK-MEL-5 melanoma
# [15] = tested on: NCI-H460 lung
# [16] = tested on: IGROV1 ovarian
# [17] = tested on: DLD-1 colon
# [18] = tested on: LXFL 529 NSCLC
Structure (SMILES),TGI [1] [µM],TGI [2] [µM],TGI [3] [µM],TGI [4] [µM],TGI [5] [µM],TGI [6] [µM],TGI [7] [µM],TGI [8] [µM],TGI [9] [µM],TGI [10] [µM],TGI [11] [µM],TGI [12] [µM],TGI [13] [µM],TGI [14] [µM],TGI [15] [µM],TGI [16] [µM],TGI [17] [µM],TGI [18] [µM]
O=C(/C=C/c1ccc(F)c(F)c1)OCCc1ccccc1,> 100,> 100,> 100,> 100,> 100,> 100,> 100,> 100,> 100,> 100,> 100,> 100,> 100,> 100,> 100,> 100,–,–
Cc1cc2c(=O)[nH]nc(N)c2c(N)n1,> 100,> 100,> 100,> 100,> 100,> 100,> 100,> 100,> 100,> 100,> 100,> 100,> 100,> 100,> 100,> 100,–,–
NC(N)=NS(=O)(=O)c1ccc(NNc2c3ccccc3nc3c(C(=O)Nc4ccc(S(N)(=O)=O)cc4)cccc23)cc1,29.4,> 100,70.5,> 100,> 100,> 100,> 100,> 100,> 100,70.6,> 100,> 100,> 100,> 100,> 100,> 100,–,–
O=C(NC/C(Cl)=C/Cl)Nc1cccc2c1CCCC2,> 100,> 100,> 100,> 100,> 100,> 100,> 100,> 100,> 100,> 100,> 100,> 100,> 100,> 100,> 100,> 100,–,–
COc1cccc(/C=C2\C(=O)N(C(=O)Cc3ccccc3)N=C2C)c1,> 100,> 100,–,> 100,–,–,> 100,> 100,> 100,> 100,> 100,> 100,> 100,> 100,–,–,> 100,–
Cc1cc(C)c2c(c1)C(=O)C1(C2)Cc2c(ccc(C)c2C)C1=O (stereo not drawn),> 100,> 100,> 100,> 100,> 100,> 100,> 100,> 100,> 100,> 100,> 100,> 100,> 100,> 100,> 100,> 100,–,–
CO[C@H](c1ccccc1)[C@H](C)N(C)c1ccc2ccccc2c1C1=NC(C)(C)CO1,–,40.9,–,44.2,–,–,–,61.8,36.1,39.3,36.4,35.2,27.9,> 100,33,> 100,31.8,49.6
COc1ccc(-n2c(=O)n(C)c(=O)n2-c2c(C)c(C)c(C)c(C)c2C)cc1,> 100,> 100,> 100,> 100,> 100,> 100,> 100,> 100,> 100,> 100,> 100,> 100,> 100,> 100,> 100,> 100,–,–
COP(=O)(C(/C=C/c1ccccc1)OC(C)=O)[C@@H]1CCCC[C@H]1N(CC(C)(C)C)C(C)=O (stereo partly drawn),30.3,27.1,> 100,57.8,37.4,32.6,92.6,48.2,40.8,27.7,30.7,47.3,27.9,27.3,28.6,24.1,–,–
O=C(CCc1cccc(O)c1)NCCc1cccc(OCc2ccccc2)c1,29.8,38,40.4,62.2,31.8,55,> 72.2,55.2,43,43.5,> 78.3,> 70.9,33.4,29.7,34.5,25.2,–,–
C[N+](C)(Cc1ccc(NC(=O)CCCC(=O)ON2C(=O)CCC2=O)cc1)c1ccccc1,> 100,–,–,–,–,–,> 100,> 100,3.93,1.8,> 100,2.08,–,–,–,–,> 100,> 100
COc1ccc(/C(Cl)=C/c2ccc(Cl)c(Cl)c2)cc1,–,54,–,61.8,–,–,–,–,> 100,37,91.6,83.6,> 100,50.3,–,> 100,> 100,> 100

# Source: PubChem BioAssay (NCI)
